Test [1] deals with SKOV3. In words: cells. Also noted: MTT cell viability assay, absorbance at 575 nm, SK-OV-3 cells. The note with it: Homo sapiens, SK-OV-3, 48 h. The method, then: (§1) The cell viability effects of 12 candidate compounds were evaluated by MTT assay and compared against a control group (medium containing 0.1% DMSO). The cells were seeded in 96-well plates and pre-cultured for 24 h (1 × 10^5 cells/well). The cells were then incubated for 48 h with the 12 identified compounds (at 0, 3.125, 6.25, 12.5, 25, 50, or 100 µM) dissolved in 0.1% DMSO. After 48 h, MTT solution (2.5 mg/mL in DMEM) was added to the cells and incubated for 1 h. DMSO was added to dissolve the purple crystals, and the absorbance values were measured at 575 nm using a spectrophotometer (SPECTROstar Nano; BMG LABTECH, Offenburg, Germany). Each treatment group has four biological replicates (n = 4). The IC50 values for each compound in each cell line were obtained using the results of the MTT assay and calculated using the GraphPad Prism 6 program (GraphPad Software, Inc., San Diego, CA, USA). A CI higher than 1.0 indicates an antagonistic effect, a CI equal to 1.0 indicates an additive effect, and a CI lower than 1.0 indicates a synergistic effect.

Test [2] concerns ES2. The experiment in a line: cells. On the set-up: MTT cell viability assay, absorbance at 575 nm, ES-2 cells. The note with it: Homo sapiens, ES-2, 48 h. The method, then:
as §1

In test [3] the test system is MDH2774. The experiment in a line: cells. The settings on record: Homo sapiens, MDAH 2774, 48 h. Also noted: MTT cell viability assay, absorbance at 575 nm, MDAH 2774 cells. The method, then: as §1
Test [4] deals with OVCAR3. The experiment in a line: cells. The note with it: Homo sapiens, OVCAR-3, 48 h. On the set-up: MTT cell viability assay, absorbance at 575 nm, OVCAR-3 cells. The method, then:
as §1

The target of test [5] is T1, Aurora A kinase (Aurora A) (Homo sapiens, UniProt O14965).
T1 construct: gene AURKA
T1 sequence (O14965 1-403): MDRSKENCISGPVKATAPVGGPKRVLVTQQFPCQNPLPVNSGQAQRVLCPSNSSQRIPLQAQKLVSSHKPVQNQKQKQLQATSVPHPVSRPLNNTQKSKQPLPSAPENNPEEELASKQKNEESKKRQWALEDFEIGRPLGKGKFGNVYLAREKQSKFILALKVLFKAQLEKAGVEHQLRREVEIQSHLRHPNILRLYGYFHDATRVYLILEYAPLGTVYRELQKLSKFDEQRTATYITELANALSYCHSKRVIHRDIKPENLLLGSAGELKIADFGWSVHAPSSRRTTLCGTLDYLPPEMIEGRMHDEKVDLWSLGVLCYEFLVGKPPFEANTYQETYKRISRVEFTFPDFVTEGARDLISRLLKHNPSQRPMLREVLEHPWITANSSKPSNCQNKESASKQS
The experiment in a line: in vitro Aurora A kinase assay kit (Promega V1931, luminescence), dose-dependent at […]; supported by CETSA in MDAH […] and OVCAR-3 cells. The test is classed as biochemical.

Structures can show the parent of a compound that is named as a salt. Bounds are passed on as bounds.

Take `O=C(O)c1cc(O)c2c(c1)[C@@H]([C@H]1c3cc(C(=O)O)cc(O)c3C(=O)c3c(O[C@@H]4O[C@H](CO)[C@@H](O)[C@H](O)[C@H]4O)cccc31)c1cccc(O[C@@H]3O[C@H](CO)[C@@H](O)[C@H](O)[C@H]3O)c1C2=O` [Sennoside B]: the half-inhibitory concentration (IC50) in test [1] is more than 100 µM.
As for `COc1ccc2cc3[n+](cc2c1OC)CCc1cc2c(cc1-3)OCO2` [Berberine], the IC50 in test [2] is 87.6 ± 0.02 µM; in test [3] it was 12.8 ± 1.24 µM; in test [4], 20.56 ± 0.021 µM; in test [1] it was 39.38 ± 0.02 µM.
Take `CN1CCc2cc3c(cc2C(=O)Cc2cc4c(cc2C1)OCO4)OCO3` [Protopine]: the IC50 in test [4] was 25.4 ± 0.68 µM; in test [1] it was 26.1 ± 0.49 µM.
In the case of `C/C=C(\C)C(=O)N[C@@H](c1ccccc1)[C@@H](O)C(=O)O[C@H]1C[C@@]2(O)[C@@H](OC(=O)c3ccccc3)[C@@H]3[C@]4(OC(C)=O)CO[C@@H]4C[C@H](O)[C@@]3(C)C(=O)[C@H](OC(C)=O)C(=C1C)C2(C)C` [Cephalomannine], the IC50 in test [3] turned out to be 41.72 ± 0.01 µM; in test [4] it was 41.78 ± 0.013 µM; in test [1], 10.79 ± 0.01 µM.
As for `O=C(/C=C/c1ccc(O)cc1)CC(=O)/C=C/c1ccc(O)cc1` [Bisdemethoxycurcumin], the IC50 in test [2] worked out at 45.5 ± 0.5 µM; in test [3] it was 26 ± 0.53 µM; in test [4], 24.9 ± 0.74 µM; in test [1], 25.1 ± 1.9 µM.
In the case of `CC(=O)O[C@@]12CO[C@@H]1C[C@H](O)[C@@]1(C)C(=O)[C@H](O)C3=C(C)[C@@H](OC(=O)[C@H](O)[C@@H](NC(=O)OC(C)(C)C)c4ccccc4)C[C@@](O)([C@@H](OC(=O)c4ccccc4)[C@H]21)C3(C)C` [Docetaxel], the IC50 in test [2] amounted to 50.38 ± 0.25 µM; in test [3], 24.55 ± 0.011 µM; in test [4], 40.59 ± 0.015 µM; in test [1] it was 21.48 ± 0.01 µM.
On to `O=c1cc(-c2ccc(O)c(-c3c(O)cc(O)c4c(=O)cc(-c5ccc(O)cc5)oc34)c2)oc2cc(O)cc(O)c12` [Amentoflavone], for which the 50% inhibitory concentration (IC50) in test [3] was 99.32 ± 0.03 µM; in test [1], 78.9 ± 0.8 µM.
Turning to `Cc1cc(O)c2c(c1)C(=O)c1cc(O)cc(O)c1C2=O` [Emodin], the IC50 in test [2] was determined as 50.2 ± 2.09 µM; in test [3] it was 34.32 ± 0.021 µM; in test [4], 22.64 ± 0.03 µM; in test [1], 34.7 ± 0.02 µM.
In the case of `COc1cc2c(cc1OC)-c1cc3ccc(OC)c(OC)c3c[n+]1CC2` [Palmatine hydrochloride], the IC50 in test [3] worked out at 51.29 ± 0.34 µM; in test [1], 59.33 ± 0.02 µM.
`O=C(/C=C/c1ccc(O)cc1)c1ccc(O)cc1O` [Isoliquiritigenin]: the IC50 in test [2] was determined as 51.46 ± 0.32 µM; in test [3], 50.36 ± 0.48 µM; in test [4] it was 25.8 ± 1.21 µM; in test [1], 26 ± 0.44 µM.
With `COc1ccc2cc1Oc1ccc(cc1)C[C@H]1c3cc(c(OC)cc3CCN1C)Oc1c(O)c(OC)cc3c1[C@H](C2)N(C)CC3` [fangchinoline], the IC50 in test [2] was determined as 25.1 ± 0.65 µM; in test [3], 8.71 ± 0.24 µM; in test [4], 9.66 ± 0.3 µM; in test [1], 11.7 ± 1.2 µM. Besides, the “in vitro Aurora A kinase assay kit (Promega V1931, luminescence), dose-dependent” value in test [5] is listed as “Figure 2C shows that fangchinoline treatment significantly decreased Aurora A enzymatic activity in a dose-dependent manner”.

Source of the values: paper PMC8836832, “Novel Aurora A Kinase Inhibitor Fangchinoline Enhances Cisplatin–DNA Adducts and Cisplatin Therapeutic Efficacy in OVCAR-3 Ovarian Cancer Cells-Derived Xenograft Model” (International Journal of Molecular Sciences, 2022).
